Results from PubChem BioAssay (NCI).
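Dose response: 5 concentrations. Exposure: 48 h. Format: 96-well plates. Endpoint: linear interpolation; highest concentration if not reached. GI50 marks 50% less growth. TGI: total growth inhibition.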

Experiments:
Assay in all cases: NCI-60 cell line screen, 48 h
M14 melanoma = system: M14 melanoma
RPMI-8226 leukemia = system: RPMI-8226 leukemia
TK-10 renal = system: TK-10 renal
MOLT-4 leukemia = system: MOLT-4 leukemia
SNB-75 CNS = system: SNB-75 CNS
BT-549 breast = system: BT-549 breast
RXF 393 renal = system: RXF 393 renal
A549 NSCLC = system: A549 NSCLC
IGROV1 ovarian = system: IGROV1 ovarian
HCC-2998 colon = system: HCC-2998 colon
HT29 colon = system: HT29 colon
SNB-19 CNS = system: SNB-19 CNS
NCI-H522 lung = system: NCI-H522 lung
MALME-3M melanoma = system: MALME-3M melanoma
SK-OV-3 ovarian = system: SK-OV-3 ovarian
A498 renal = system: A498 renal
HOP-62 NSCLC = system: HOP-62 NSCLC
CCRF-CEM leukemia = system: CCRF-CEM leukemia
SK-MEL-28 melanoma = system: SK-MEL-28 melanoma
SF-295 CNS = system: SF-295 CNS
NCI-H23 lung = system: NCI-H23 lung
K-562 leukemia = system: K-562 leukemia
SK-MEL-2 melanoma = system: SK-MEL-2 melanoma
CAKI-1 renal = system: CAKI-1 renal
UACC-62 melanoma = system: UACC-62 melanoma
UACC-257 melanoma = system: UACC-257 melanoma
LOX IMVI melanoma = system: LOX IMVI melanoma
SW-620 colon = system: SW-620 colon
HS 578T breast = system: HS 578T breast
UO-31 renal = system: UO-31 renal
MCF7 breast = system: MCF7 breast
EKVX NSCLC = system: EKVX NSCLC
NCI/ADR-RES ovarian = system: NCI/ADR-RES ovarian
HCT-15 colon = system: HCT-15 colon
DU-145 prostate = system: DU-145 prostate
SF-268 CNS = system: SF-268 CNS
OVCAR-8 ovarian = system: OVCAR-8 ovarian
MDA-MB-231 breast = system: MDA-MB-231 breast
HCT-116 colon = system: HCT-116 colon
OVCAR-3 ovarian = system: OVCAR-3 ovarian
HOP-92 NSCLC = system: HOP-92 NSCLC
COLO 205 colon = system: COLO 205 colon
SK-MEL-5 melanoma = system: SK-MEL-5 melanoma
ACHN renal = system: ACHN renal
PC-3 prostate = system: PC-3 prostate
U251 CNS = system: U251 CNS
OVCAR-5 ovarian = system: OVCAR-5 ovarian
MDA-MB-435 = system: MDA-MB-435
SN12C renal = system: SN12C renal
NCI-H460 lung = system: NCI-H460 lung
HL-60(TB) leukemia = system: HL-60(TB) leukemia
786-0 renal = system: 786-0 renal
OVCAR-4 ovarian = system: OVCAR-4 ovarian
SF-539 CNS = system: SF-539 CNS

Compound `CC/C=C\C/C=C\C[C@H]1C/C=C2/C(=O)C=C[C@@H]2C/C=C\CCC(=O)O1` has a GI50 (M14 melanoma) of 1020 nM, a TGI (M14 melanoma) of 4610 nM and a GI50 (RPMI-8226 leukemia) of 847 nM. The TGI (RPMI-8226 leukemia) was 2430 nM, the GI50 (TK-10 renal) was 1260 nM and the TGI (TK-10 renal) was 3430 nM. It also gave a GI50 (MOLT-4 leukemia) of 976 nM, a TGI (MOLT-4 leukemia) of 4370 nM and a GI50 (SNB-75 CNS) of 1400 nM. For the same compound, the TGI (SNB-75 CNS) was 6920 nM, the GI50 (BT-549 breast) was 1100 nM and the TGI (BT-549 breast) was 3610 nM. The GI50 (RXF 393 renal) was 686 nM, the TGI (RXF 393 renal) was 1560 nM and the GI50 (A549 NSCLC) was 1220 nM. For the same compound, the TGI (A549 NSCLC) was 10900 nM, the GI50 (IGROV1 ovarian) was 1570 nM and the TGI (IGROV1 ovarian) was 5900 nM. It also gave a GI50 (HCC-2998 colon) of 871 nM, a TGI (HCC-2998 colon) of 2320 nM and a GI50 (HT29 colon) of 828 nM. For the same compound, the TGI (HT29 colon) was 2040 nM, the GI50 (SNB-19 CNS) was 3150 nM and the TGI (SNB-19 CNS) was 8450 nM. For the same compound, the GI50 (NCI-H522 lung) was 524 nM, the TGI (NCI-H522 lung) was 1420 nM and the GI50 (MALME-3M melanoma) was 1960 nM. For the same compound, the TGI (MALME-3M melanoma) was 8040 nM, the GI50 (SK-OV-3 ovarian) was 7180 nM and the TGI (SK-OV-3 ovarian) was 20100 nM. It also gave a GI50 (A498 renal) of 5380 nM, a TGI (A498 renal) of 10200 nM and a GI50 (HOP-62 NSCLC) of 1180 nM. For the same compound, the TGI (HOP-62 NSCLC) was 4650 nM, the GI50 (CCRF-CEM leukemia) was 1130 nM and the TGI (CCRF-CEM leukemia) was 7050 nM. It also gave a GI50 (SK-MEL-28 melanoma) of 1020 nM, a TGI (SK-MEL-28 melanoma) of 3140 nM and a GI50 (SF-295 CNS) of 1830 nM. For the same compound, the TGI (SF-295 CNS) was 6860 nM, the GI50 (NCI-H23 lung) was 793 nM and the TGI (NCI-H23 lung) was 2790 nM. For the same compound, the GI50 (K-562 leukemia) was 1170 nM, the TGI (K-562 leukemia) was 9100 nM and the GI50 (SK-MEL-2 melanoma) was 871 nM. It also gave a TGI (SK-MEL-2 melanoma) of 2420 nM, a GI50 (CAKI-1 renal) of 1290 nM and a TGI (CAKI-1 renal) of 6350 nM. It also gave a GI50 (UACC-62 melanoma) of 767 nM, a TGI (UACC-62 melanoma) of 2400 nM and a GI50 (UACC-257 melanoma) of 1850 nM. It also gave a TGI (UACC-257 melanoma) of 7820 nM, a GI50 (LOX IMVI melanoma) of 563 nM and a TGI (LOX IMVI melanoma) of 1110 nM. It also gave a GI50 (SW-620 colon) of 1650 nM, a TGI (SW-620 colon) of 6040 nM and a GI50 (HS 578T breast) of 6080 nM. The TGI (HS 578T breast) was 33200 nM, the GI50 (UO-31 renal) was 1360 nM and the TGI (UO-31 renal) was 4940 nM. For the same compound, the GI50 (MCF7 breast) was 936 nM, the TGI (MCF7 breast) was 7510 nM and the GI50 (EKVX NSCLC) was 1510 nM. For the same compound, the TGI (EKVX NSCLC) was 8300 nM, the GI50 (NCI/ADR-RES ovarian) was 746 nM and the TGI (NCI/ADR-RES ovarian) was 1910 nM. The GI50 (HCT-15 colon) was 735 nM, the TGI (HCT-15 colon) was 2150 nM and the GI50 (DU-145 prostate) was 1190 nM. For the same compound, the TGI (DU-145 prostate) was 5040 nM, the GI50 (SF-268 CNS) was 1540 nM and the TGI (SF-268 CNS) was 9100 nM. For the same compound, the GI50 (OVCAR-8 ovarian) was 1140 nM, the TGI (OVCAR-8 ovarian) was 4190 nM and the GI50 (MDA-MB-231 breast) was 1070 nM. It also gave a TGI (MDA-MB-231 breast) of 6030 nM, a GI50 (HCT-116 colon) of 634 nM and a TGI (HCT-116 colon) of 1470 nM. The GI50 (OVCAR-3 ovarian) was 1080 nM, the TGI (OVCAR-3 ovarian) was 3520 nM and the GI50 (HOP-92 NSCLC) was 3930 nM. The TGI (HOP-92 NSCLC) was 10400 nM, the GI50 (COLO 205 colon) was 1040 nM and the TGI (COLO 205 colon) was 2820 nM. For the same compound, the GI50 (SK-MEL-5 melanoma) was 776 nM, the TGI (SK-MEL-5 melanoma) was 2100 nM and the GI50 (ACHN renal) was 727 nM. The TGI (ACHN renal) was 1490 nM, the GI50 (PC-3 prostate) was 1180 nM and the TGI (PC-3 prostate) was 4360 nM. The GI50 (U251 CNS) was 1160 nM, the TGI (U251 CNS) was 3690 nM and the GI50 (OVCAR-5 ovarian) was 1350 nM. It also gave a TGI (OVCAR-5 ovarian) of 4950 nM, a GI50 (MDA-MB-435) of 912 nM and a TGI (MDA-MB-435) of 2750 nM. For the same compound, the GI50 (SN12C renal) was 1120 nM, the TGI (SN12C renal) was 9690 nM and the GI50 (NCI-H460 lung) was 1460 nM. The TGI (NCI-H460 lung) was 16300 nM, the GI50 (HL-60(TB) leukemia) was 1220 nM and the TGI (HL-60(TB) leukemia) was 3140 nM. For the same compound, the GI50 (786-0 renal) was 1400 nM, the TGI (786-0 renal) was 4970 nM and the GI50 (OVCAR-4 ovarian) was 1320 nM. It also gave a TGI (OVCAR-4 ovarian) of 5660 nM, a GI50 (SF-539 CNS) of 995 nM and a TGI (SF-539 CNS) of 3460 nM.
